The results in this text go back to patent US20260097133A1, “EPIGENETIC EDITING TOOL FOR TARGETING HEPATITIS B VIRUS GENE” (priority 2023, published 2026).

For the first series, the system named is type D HBV X protein (HBx) reporter cell line. Kind of series: sgRNA lentiviral library screening, HBx reporter cell line (NGS reads in GFP-negative cells). Format: cell-based. The following applies: sgRNA in GFP-negative cell population, day 14 after transfection of EPIREG. The text has this:
(§1) In this example, the type D HBV X protein (HBx), core antigen (HBcAg), and surface antigen (HBsAg) reporter cell lines were used for library screening. First, a sgRNA cell library of type D HBV gene was constructed using a reporter cell line according to the method described in example 1. The sgRNA library was packaged into lentivirus to obtain a sgRNA lentiviral library (carrying red fluorescence), the reporter cell line was infected with the lentiviral library, and the red fluorescence was sorted to obtain the sgRNA cell library. Each cell in this sorted cell library integrated a single sgRNA in the library while the cell itself carried a reporter sequence (carrying green fluorescence). The EPIREG tool described in example 2 (the amino acid sequence of the tool was SEQ ID NO: 1194) (carrying blue fluorescence) was transfected and delivered into a cell library carrying both sgRNA and reporter sequences. Red/green/blue fluorescent triple-positive cells were sorted using a flow cytometer and cultured long-term. The EPIREG transfected into the cells could work together with the sgRNA to silence GFP in the reporter. On the day 14 after transfection, the GFP-negative cell population in the cell library was sorted, the genomic DNA of the negative cell population was extracted for NGS sequencing. The sgRNAs with higher sequencing reads in the negative cell population were compared using the untreated cell library as a control reference, so as to obtain the candidate sgRNAs that could play an editing role corresponding to each reporter, respectively (the schematic diagram of this screening scheme is shown in FIG. 6, and the analysis method is referenced to the literature DOI: 10.1186/s13059-014-0554-4). The functionally validated sgRNAs for each reporter cell line are summarized in the following table (arranged by the starting position of the target sequence of each sgRNA).
In the case of “197 (guide AGGTCTGGAGCAAACATTAT; chemistry not given here) [compound 197]”, the “Log2 FC” value is on record as 3.6817. For the substance “200 (guide AGGTGCGCCCCGTGGTCGGT; listed as DNA, chemistry not fully specified) [compound 200]”, the “Log2 FC” value is given as 7.535. In the case of “204 (guide AGGTTCCACGCACGCGCTGA; listed as DNA, chemistry not fully specified) [compound 204]”, the “Log2 FC” value was 3.0712. “254 (guide ATGGATACGATGTATATTTG; listed as DNA, chemistry not fully specified) [compound 254]”: the “Log2 FC” value turned out to be 3.4564. As to “257 (guide ATGGGCCATCAGCGCGTGCG; listed as DNA, chemistry not fully specified) [compound 257]”, the “Log2 FC” value amounted to 6.5564.

For another series, the system named is type D HBV core antigen (HBcAg) reporter cell line. Briefly: sgRNA lentiviral library screening, HBcAg reporter cell line (NGS reads in GFP-negative cells). The conditions noted are these: sgRNA in GFP-negative cell population, day 14 after transfection of EPIREG. Format: cell-based.
From the text: as §1
For the substance “39 (guide AACCCCCACTGGCTGGGGCT; listed as DNA, chemistry not fully specified) [compound 39]”, the “Log2 FC” value was determined as 3.4538.

Regarding “70 (guide ACAAGAGTTGCCTGAACTTT; listed as DNA, chemistry not fully specified) [compound 70]”, the “Log2 FC” value is listed as 2.5329.

With “74 (guide ACAATGCTCAGGAGACTCTA; listed as DNA, chemistry not fully specified) [compound 74]”, the “Log2 FC” value is 2.1202. In the case of “81 (guide ACACGGTCCGGCAGATGAGA; listed as DNA, chemistry not fully specified) [compound 81]”, the “Log2 FC” value was determined as 2.0776.

As to “113 (guide ACGATGTATATTTGCGGGAG; listed as DNA, chemistry not fully specified) [compound 113]”, the “Log2 FC” value is 2.0632.

Consider “120 (guide ACTACTAGGTCTCTAGATGC; chemistry not given here) [compound 120]”, for which the “Log2 FC” value is reported as 2.9841. For the substance “139 (guide AGACACCAAATACTCTATAA; listed as DNA, chemistry not fully specified) [compound 139]”, the “Log2 FC” value came to 2.8391. With “225 (guide ATACCGCCTCAGCTCTGTAT; listed as DNA, chemistry not fully specified) [compound 225]”, the “Log2 FC” value was 3.966. On the same count and under the same terms, to “427 (guide CCGCAGGATTCAGCGCCGAC; listed as DNA, chemistry not fully specified) [compound 427]” belongs 3.4136. On to “560 (guide CTGTGCCTTGGGTGGCTTTG; listed as DNA, chemistry not fully specified) [compound 560]”, for which the “Log2 FC” value is recorded as 2.7695. On to “628 (guide GAGGTGAAGCGAAGTGCACA; listed as DNA, chemistry not fully specified) [compound 628]”, for which the “Log2 FC” value worked out at 3.2225.

As for “750 (guide GGCTTCCCGATACAGAGCTG; listed as DNA, chemistry not fully specified) [compound 750]”, the “Log2 FC” value came out at 4.6799.

“841 (guide GTGAAAAAGTTGCATGGTGC; listed as DNA, chemistry not fully specified) [compound 841]”: the “Log2 FC” value came out at 2.0112. As for “872 (guide TAAAGACTGGGAGGAGTTGG; listed as DNA, chemistry not fully specified) [compound 872]”, the “Log2 FC” value is 3.0933. Turning to “981 (guide TCTAGAAGATCTCGTACTGA; listed as DNA, chemistry not fully specified) [compound 981]”, the “Log2 FC” value stood at 2.1673. As for “1068 (guide TGGTGAGGTGAACAATGCTC; listed as DNA, chemistry not fully specified) [compound 1068]”, the “Log2 FC” value stood at 2.5736. For the substance “1104 (guide TTCCCGATACAGAGCTGAGG; listed as DNA, chemistry not fully specified) [compound 1104]”, the “Log2 FC” value stood at 3.9205.
